The values that follow come from article PMC10573892, “β-Lactam TRPM8 Antagonists Derived from Phe-Phenylalaninol Conjugates: Structure–Activity Relationships and Antiallodynic Activity” (International Journal of Molecular Sciences, 2023).

In test [1] the target is T1, rat TRPM8 channel (rTRPM8) (Rattus norvegicus, UniProt Q8R455).
T1 construct: expressed in transfected cells
Kind of test: Ca2+ microfluorimetry, menthol-induced Ca2+ entry in HEK293 cells overexpressing rTRPM8. The class given is cell-based. As to conditions: for IC50: rTRPM8, HEK293, activation by 100 µM menthol. The method, then:
The diastereomeric 1,4,4-trisubstitutes β-lactams were evaluated as modulators of the TRPM8 channel by calcium microfluorimetry assays. These assays use a Human Embryonic Kidney 293 (HEK293) cell line that stably overexpressed rat TRPM8 channel (rTRPM8). […] Three separated experiments in triplicate were used.
The initial biological evaluation of this series of 1,3,4,4-tetrasubstituted β-lactams was performed by calcium microfluorimetry assays using the indicated HEK293 cell line overexpressing rTRPM8 channels.
(§1) Calcium fluorometry, Patch-Clamp assays and in vivo experiments were performed using the methodology previously described for TRPM8 [35] or TRPM3 [61]. In the Patch -Clamp experiments, the intracellular pipette solution contained (in mM) 140 KCl, 5 EGTA, and 10 mM HEPES, adjusted to pH 7.2 with KOH, and the extracellular solution contained (in mM) 140 NaCl, 2 CaCl2, 1 MgCl2, 10 D-glucose and 10 HEPES, adjusted to pH 7.4 with NaOH. Selectivity against TRPV1, TRPV3, TRPA1 and ASIC3 was subcontracted to Eurofins-CEREP or Eurofins-PANLABS (see ref. [35] for more details).

For test [2], the system named is dorsal root ganglia (DRG) sensory neurons. Kind of test: Resting membrane potential of DRG sensory neurons (current clamp Patch-Clamp). The following applies: 10 µM. The class given is cell-based. The procedure: We also investigated the effect of β-lactams derivatives on the resting membrane potential (RMP) of dorsal root ganglia (DRG) sensory neurons.
(A) Representative recordings of resting membrane potential measured under current clamp configuration. The traces show the action potentials (APs) firings from DRG neurons elicited by 100 μM menthol (left trace) or in the presence of vehicle (0.5% DMSO) or the β-lactams derivatives ([…]). (B) Changes in the Vm in the absence and in the presence of 10 μM of the β-lactams derivatives. Data were analyzed by one-way ANOVA followed by Bonferroni post hoc test for multiple comparisons (ns = no significance, **** p < = 0.0001) and given as mean ± SEM; n ≥ 40 cells from 4 cultures.

The subject of test [3] is oxaliplatin-induced cold hypersensitivity. Kind of test: Oxaliplatin-induced cold allodynia in mice (acetone drop test). The class given is in vivo.
Excerpt: It is established that treatments with the chemotherapeutic drug oxaliplatin (OXA) induce painful peripheral neuropathy, known as CIPN, which becomes more pronounced in cold conditions. The TRPM8 channel has been implicated in mouse models of CIPN pain induced by OXA [19, 51]. In fact, the OXA-induced peripheral neuropathy mouse model is being used for the pharmacological characterization of TRPM8 antagonists. For this peripheral neuropathy assay, mice were subcutaneously (s.c.) injected with OXA at a dose of 6 mg/kg dose on days 1, 3 and 5 to male mice to induce increased sensitivity to cold, which can be monitored through the acetone drop test.
Consequently, compounds 34 and 35 have been tested for their ability to alleviate OXA-induced cold hypersensitivity after intraplantar administration (i.pl., 3, 1 and 0.1 μg). […] This effect was observed 15 min post-administration and sustained up to 60 min.
as §1
Figure 4 Effects of compounds 34 (A) and 35 (B) on the oxaliplatin (OXP)-induced cold hypersensitivity (drop acetone test). Peripheral neuropathy was induced in male mice by injecting OXA (6 mg/kg, s.c.) on days 1, 3 and 5. Control animals were treated with vehicle. Compounds 34 (A) and 35 (B) (3 µg/i.pl., 1 µg/i.pl. and 0.1 µg/i.pl.) were administered to the OXP-treated animals, and the time-course of cold hypersensitivity was measured. Data are given ± SEM (n = 5). Statistical analysis, comparing with oxaliplatin-treated mice, was performed by two-way ANOVA followed by post hoc Bonferroni test by multiple comparisons: * […], ** p < 0.01, **** p < 0.0001.

The next test concerns the target T2, hTRPM8 (Homo sapiens, UniProt Q7Z2W7).
T2 construct: expressed in transfected cells; host or cells: HEK293
Kind of test: Ca2+ microfluorimetry in HEK293 cells expressing human TRPM8. The following applies: activation by 100 µM menthol; read-out: Ca^2+ Microfluorimetry Assays hTRPM8 IC50. Format: cell-based. The method, then:
To further characterize this family of compounds, calcium microfluorimetry assays were conducted using the HEK293 cell line, which expresses the human isoform of the TRPM8 channel. Amide derivatives 34 and 35 were selected, and their outcomes were compared with those of the model compound 1 (Table 4). […] This behavior is not particular of these β-lactams, but it is similar to those observed for other TRPM8 antagonists.
as §1

A further test deals with T3, rTRPM8 (Rattus norvegicus, UniProt Q8R455).
T3 construct: expressed in transfected cells
T3 sequence (Q8R455 whole entry): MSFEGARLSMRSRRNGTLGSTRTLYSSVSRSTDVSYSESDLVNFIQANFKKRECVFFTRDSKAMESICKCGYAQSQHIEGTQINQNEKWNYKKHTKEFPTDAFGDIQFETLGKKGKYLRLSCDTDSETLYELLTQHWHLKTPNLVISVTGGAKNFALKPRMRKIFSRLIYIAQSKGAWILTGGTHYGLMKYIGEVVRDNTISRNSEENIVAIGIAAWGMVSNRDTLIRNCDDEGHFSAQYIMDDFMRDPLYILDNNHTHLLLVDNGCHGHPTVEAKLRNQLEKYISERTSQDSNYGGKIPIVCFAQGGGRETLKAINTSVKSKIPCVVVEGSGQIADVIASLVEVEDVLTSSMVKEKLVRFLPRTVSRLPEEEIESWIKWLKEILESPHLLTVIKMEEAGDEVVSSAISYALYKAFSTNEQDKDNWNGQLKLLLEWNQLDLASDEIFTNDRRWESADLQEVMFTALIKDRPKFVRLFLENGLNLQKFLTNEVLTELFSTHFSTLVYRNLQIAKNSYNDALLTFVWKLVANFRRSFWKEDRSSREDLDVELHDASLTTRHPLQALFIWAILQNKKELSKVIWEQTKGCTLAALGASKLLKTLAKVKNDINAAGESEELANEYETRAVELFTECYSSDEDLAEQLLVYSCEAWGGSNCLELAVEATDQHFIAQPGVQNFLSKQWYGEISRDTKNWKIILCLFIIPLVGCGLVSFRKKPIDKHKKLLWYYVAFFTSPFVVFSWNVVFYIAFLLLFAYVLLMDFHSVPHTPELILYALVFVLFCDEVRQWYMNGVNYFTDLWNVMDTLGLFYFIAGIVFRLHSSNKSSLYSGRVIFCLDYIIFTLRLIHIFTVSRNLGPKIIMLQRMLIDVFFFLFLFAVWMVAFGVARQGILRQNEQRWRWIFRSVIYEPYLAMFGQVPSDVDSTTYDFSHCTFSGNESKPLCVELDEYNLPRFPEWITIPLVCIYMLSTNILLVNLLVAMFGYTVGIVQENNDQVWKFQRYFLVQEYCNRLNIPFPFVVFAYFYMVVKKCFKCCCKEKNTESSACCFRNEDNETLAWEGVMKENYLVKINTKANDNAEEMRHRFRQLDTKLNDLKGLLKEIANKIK
Kind of test: Patch-Clamp electrophysiology on single HEK293 cells expressing rat TRPM8. The class given is cell-based. The following applies: activation by 100 µM menthol; holding voltage −60 mV.
Excerpt: A recent research study using Patch-Clamp, among other techniques, established that menthol occupies a cavity within the TRPM8 S1–S4 transmembrane helix, with the OH group forming an H-bond with the δ-NH of R842 residue, and Van der Waals interactions among the methyl groups of the ^iPr moiety and residues I846 and L843 [41].
This is evident by a negligible current at negative potentials and a linear intensification of the ohmic current at positive voltages. When applying compound 34 at a concentration of […], a noticeable reduction in menthol-induced activity at depolarizing voltages was observed (indicated by the red line) compared to menthol alone. Dose–response relationships for both tested compounds were established through triplicate experiments at various concentrations, applying a holding voltage of −60 mV (as shown in Figure 2B).
as §1
Figure 2 Compound 34 blocks TRPM8-mediated responses evoked by menthol in rTRPM8-expressing HEK293 cells. (A) IV curves obtained after exposure to vehicle solution (green trace), 100 µM menthol (blue trace) and 100 µM menthol + 10 µM 34 (red trace). Peak current data were expressed as pA/pF (to allow comparison among different size cells). Each point is the mean ± SEM of n = 15. (B) Concentration/response curves for rTRPM8 current blockade by 34 at a holding voltage of −60 mV. […]
Background: In patch-clamp work, channel activity is measured electrically.

The target of a further test is hTRPM3 (Homo sapiens, UniProt Q9HCF6). Kind of test: TRPM3 channel Ca2+ microfluorimetry (pregnenolone sulfate 50 µM). The class given is cell-based. As to conditions: 10 µM; read-out: degree of inhibition in the Ca^2+ influx induced by pregnenolone sulfate (TRPM3). The procedure:
First, some TRP channels that play a role in temperature integration and nociception were selected, including hTRPV1, hTRPV3, hTRPA1 and TRPM3. Additionally, the evaluation encompassed the hASIC3 channel with widespread distribution within the peripheral nervous system and contributions to the excitability of primary sensory neurons. In each instance, the compound was subjected to evaluation at a consistent concentration of 10 µM.
as §1

T1 sequence (Q8R455 whole entry): as above
T2 sequence (Q7Z2W7 whole entry): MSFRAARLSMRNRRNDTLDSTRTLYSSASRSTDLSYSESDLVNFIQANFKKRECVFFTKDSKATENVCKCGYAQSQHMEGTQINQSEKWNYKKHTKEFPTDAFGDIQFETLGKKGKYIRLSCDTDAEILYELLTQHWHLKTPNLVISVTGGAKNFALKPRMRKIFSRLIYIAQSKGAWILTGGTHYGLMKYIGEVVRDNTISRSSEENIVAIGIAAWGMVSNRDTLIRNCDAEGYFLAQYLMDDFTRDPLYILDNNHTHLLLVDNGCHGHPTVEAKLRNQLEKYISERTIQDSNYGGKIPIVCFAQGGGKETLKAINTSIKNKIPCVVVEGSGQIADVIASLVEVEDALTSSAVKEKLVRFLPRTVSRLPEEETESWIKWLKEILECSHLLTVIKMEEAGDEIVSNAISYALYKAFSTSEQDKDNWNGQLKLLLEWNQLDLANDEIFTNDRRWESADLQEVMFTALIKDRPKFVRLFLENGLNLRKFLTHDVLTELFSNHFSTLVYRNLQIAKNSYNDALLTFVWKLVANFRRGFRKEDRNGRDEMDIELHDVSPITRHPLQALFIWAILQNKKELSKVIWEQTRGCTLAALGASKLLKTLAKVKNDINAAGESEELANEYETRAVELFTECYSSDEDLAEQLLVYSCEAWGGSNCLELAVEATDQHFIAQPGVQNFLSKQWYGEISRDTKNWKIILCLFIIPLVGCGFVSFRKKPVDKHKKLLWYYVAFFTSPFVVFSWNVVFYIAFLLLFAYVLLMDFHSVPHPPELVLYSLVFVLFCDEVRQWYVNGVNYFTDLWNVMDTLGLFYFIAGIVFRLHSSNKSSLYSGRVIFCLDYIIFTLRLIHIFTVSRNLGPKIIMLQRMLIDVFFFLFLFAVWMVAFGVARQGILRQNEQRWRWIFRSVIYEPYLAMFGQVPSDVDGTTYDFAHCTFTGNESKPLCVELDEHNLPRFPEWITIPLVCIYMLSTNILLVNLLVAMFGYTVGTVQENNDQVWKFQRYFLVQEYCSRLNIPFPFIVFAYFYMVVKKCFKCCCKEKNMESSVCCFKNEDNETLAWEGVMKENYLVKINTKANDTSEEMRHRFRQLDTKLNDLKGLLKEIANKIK
hTRPM3, sequence (Q9HCF6 whole entry): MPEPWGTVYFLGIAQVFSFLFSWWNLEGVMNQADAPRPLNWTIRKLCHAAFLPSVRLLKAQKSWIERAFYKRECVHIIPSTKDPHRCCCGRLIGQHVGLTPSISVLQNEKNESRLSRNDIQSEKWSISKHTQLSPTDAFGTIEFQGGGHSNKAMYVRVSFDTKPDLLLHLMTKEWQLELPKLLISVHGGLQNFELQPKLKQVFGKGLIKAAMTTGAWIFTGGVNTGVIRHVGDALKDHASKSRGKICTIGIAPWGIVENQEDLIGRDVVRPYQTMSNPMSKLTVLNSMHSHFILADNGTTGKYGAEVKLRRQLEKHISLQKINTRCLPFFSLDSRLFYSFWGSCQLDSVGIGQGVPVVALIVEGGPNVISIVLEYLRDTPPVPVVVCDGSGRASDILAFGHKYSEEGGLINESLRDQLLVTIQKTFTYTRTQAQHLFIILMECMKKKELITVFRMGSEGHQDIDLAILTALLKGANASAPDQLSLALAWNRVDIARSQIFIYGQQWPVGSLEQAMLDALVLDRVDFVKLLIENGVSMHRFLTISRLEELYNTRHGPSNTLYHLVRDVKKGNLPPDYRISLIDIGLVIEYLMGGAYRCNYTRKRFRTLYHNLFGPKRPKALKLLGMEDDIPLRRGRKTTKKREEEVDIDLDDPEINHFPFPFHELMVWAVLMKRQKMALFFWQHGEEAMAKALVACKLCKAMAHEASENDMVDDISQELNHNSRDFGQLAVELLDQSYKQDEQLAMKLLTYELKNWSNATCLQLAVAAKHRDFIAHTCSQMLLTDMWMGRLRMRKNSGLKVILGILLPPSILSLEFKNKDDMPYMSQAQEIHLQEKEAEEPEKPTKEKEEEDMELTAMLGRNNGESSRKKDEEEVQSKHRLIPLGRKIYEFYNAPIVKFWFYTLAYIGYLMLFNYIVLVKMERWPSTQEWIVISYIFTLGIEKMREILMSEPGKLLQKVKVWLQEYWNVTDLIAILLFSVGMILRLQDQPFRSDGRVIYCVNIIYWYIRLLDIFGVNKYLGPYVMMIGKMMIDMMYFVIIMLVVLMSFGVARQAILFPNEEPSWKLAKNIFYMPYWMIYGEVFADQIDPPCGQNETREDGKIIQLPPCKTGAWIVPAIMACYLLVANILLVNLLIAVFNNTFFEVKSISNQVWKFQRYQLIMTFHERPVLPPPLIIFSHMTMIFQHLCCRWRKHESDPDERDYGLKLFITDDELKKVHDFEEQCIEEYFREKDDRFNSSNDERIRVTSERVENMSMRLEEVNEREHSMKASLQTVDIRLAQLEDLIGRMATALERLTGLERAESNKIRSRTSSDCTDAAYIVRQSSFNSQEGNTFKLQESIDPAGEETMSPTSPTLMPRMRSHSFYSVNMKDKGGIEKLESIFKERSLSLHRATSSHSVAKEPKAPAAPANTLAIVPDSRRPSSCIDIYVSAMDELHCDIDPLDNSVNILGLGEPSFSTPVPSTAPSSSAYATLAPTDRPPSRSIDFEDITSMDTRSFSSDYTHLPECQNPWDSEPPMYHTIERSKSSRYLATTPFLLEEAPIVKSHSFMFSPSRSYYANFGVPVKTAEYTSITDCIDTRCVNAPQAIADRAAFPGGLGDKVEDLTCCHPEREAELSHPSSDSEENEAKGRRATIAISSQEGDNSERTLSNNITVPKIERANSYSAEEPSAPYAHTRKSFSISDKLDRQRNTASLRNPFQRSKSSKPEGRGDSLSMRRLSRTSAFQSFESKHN

On to `COC(=O)C1(Cc2ccccc2)CC(=O)N1C[C@H](Cc1ccccc1)N(Cc1ccccc1)Cc1ccccc1` (stereo partly shown) [2a,b], for which the IC50 (commonly the concentration needed to halve the response being measured) in test [1] (Table 1) came to 0.15 µM.

For `CC(C)CNC(=O)C1(Cc2ccccc2)CC(=O)N1C[C@H](Cc1ccccc1)N(Cc1ccccc1)Cc1ccccc1` (stereo partly shown) [4a,b], the IC50 in test [1] (Table 1) was found to be 0.71 ± 1.2 µM.

In test [1] (Table 1), `O=C1CC(Cc2ccccc2)(C(=O)NCc2ccccc2)N1C[C@H](Cc1ccccc1)N(Cc1ccccc1)Cc1ccccc1` (stereo partly shown) [5a,b] had an IC50 of 0.71 ± 1.27 µM.

For `O=C1CC(Cc2ccccc2)(C(=O)NCc2ccc(Cl)c(Cl)c2)N1C[C@H](Cc1ccccc1)N(Cc1ccccc1)Cc1ccccc1` (stereo partly shown) [6a,b], the “antagonist activity” value in test [1] (relative to benzylamide 5a,b) is listed as “notable reduction in antagonist activity”.

The molecule `O=C1CC(Cc2ccccc2)(C(=O)Nc2cccnc2)N1C[C@H](Cc1ccccc1)N(Cc1ccccc1)Cc1ccccc1` (stereo partly shown) [7a,b] gave an IC50 in test [1] (Table 1) of 11.6 ± 1.3 µM.

In test [1] (Table 1), `O=C1CC(Cc2ccccc2)(C(=O)NCc2ccccn2)N1C[C@H](Cc1ccccc1)N(Cc1ccccc1)Cc1ccccc1` (stereo partly shown) [8a,b] registered a 50% inhibitory concentration (IC50) of 1.99 ± 1.26 µM.

In the case of `O=C1CC(Cc2ccccc2)(C(=O)NCc2cccnc2)N1C[C@H](Cc1ccccc1)N(Cc1ccccc1)Cc1ccccc1` (stereo partly shown) [9a,b], it took 10.7 ± 1.38 µM to reach half-maximal inhibition in test [1] (Table 1) (IC50).

On to `O=C1C[C@@]2(Cc3ccccc3)C(=O)N[C@@H](Cc3ccccc3)CN12` [Compound 11a, (3S,6S)-3,6-dibenzyl-1,4-diazabicyclo[4.2.0]octane-5,8-dione], for which the inhibition (commonly the change of the read-out against control, counted positive when it falls) at 50 µM in test [1] (HEK293, at 50 μM) was less than 50%.

Turning to `C[C@@H]1C(=O)N(C[C@H](Cc2ccccc2)N(Cc2ccccc2)Cc2ccccc2)[C@]1(Cc1ccccc1)C(=O)NCc1ccccc1` [Compound 35, 4S-Benzyl-4-[N-(benzyl)-carbamoyl]-3S-methyl-1-[(2′S-dibenzylamino-3′-phenyl)prop-1′-yl]-2-oxoazetidine], in test [2], the “effect on resting membrane potential (RMP)” value was “did not alter the RMP”. In addition, the “time the antiallodynic effect is sustained” value in test [3] (i.pl., observed from 15 min post-administration) was “up to 60 min”. Besides, the “effect on cold-induced paw licking” value in test [3] (male mice, OXA 6 mg/kg s.c. days 1, 3, 5, i.pl. 3, 1 and 0.1 μg) was “dose-dependent and significant reduction”. Moreover, the figures for the concentration for half-maximal inhibition (IC50) (at hTRPM8; against rTRPM8; in test [1] (Table 3)) were 3.33 ± 1.28 µM, 480 ± 1330 nM and 0.49 ± 1.27 µM, respectively. Further, at hTRPM3, the inhibition at 10 µM turned out to be 4.1 ± 10.8%.

The molecule `C[C@@H]1C(=O)N(C[C@H](Cc2ccccc2)NCc2ccccc2)[C@]1(Cc1ccccc1)C(=O)OC(C)(C)C` [Compound 37, 4S-Benzyl-4-(terc-butoxy)carbonyl-3S-methyl-1-[(2’S-N-benzylamino-3’-phenyl)prop-1′-yl]-2-oxoazetidine] yielded an IC50 in test [1] (Table 3) of 3.06 ± 1.25 µM.

As to `C[C@@H]1C(=O)N(C[C@H](Cc2ccccc2)NCc2cccc(-c3ccccc3)c2)[C@]1(Cc1ccccc1)C(=O)OC(C)(C)C` [Compound 40, 4S-Benzyl-4-(terc-butoxy)carbonyl-3S-methyl-1-[(2’S-N-(3′′-biphenyl)methylamino-3’-phenyl)prop-1′-yl]-2-oxoazetidine], the IC50 in test [1] (Table 3) turned out to be 6.36 ± 1.41 µM.

For `C[C@@H]1C(=O)N(C[C@H](Cc2ccccc2)NCc2ccc(-c3ccccc3)cc2)[C@]1(Cc1ccccc1)C(=O)OC(C)(C)C` [Compound 41, 4S-Benzyl-4-terc-butoxycarbonyl-3S-methyl-1-[(2’S-N-(4′′-biphenyl)methylamino-3’-phenyl)prop-1′-yl]-2-oxoazetidine], the half-maximal inhibitory concentration (IC50) in test [1] (Table 3) was found to be 9.26 ± 1.41 µM.

In turn, `CC(C)CNC(=O)[C@]1(Cc2ccccc2)[C@H](C)C(=O)N1C[C@H](Cc1ccccc1)NCc1cccc(-c2ccccc2)c1` [Compound 42, 4S-Benzyl-4-[N-(iso-butyl)-carbamoyl]-3S-methyl-1-[(2′S-(3′′-phenylbencil)amino-3′-phenyl)prop-1′-yl]-2-oxoazetidine] returned an IC50 in test [1] (Table 3) of 2.19 ± 1.36 µM.

For `CC(C)CNC(=O)[C@]1(Cc2ccccc2)[C@H](C)C(=O)N1C[C@H](Cc1ccccc1)NCc1cccc(F)c1` [Compound 43, 4S-Benzyl-4-[N-(iso-butyl)carbamoyl]-3S-methyl-1-[(2′S-(3′′-fluorobenzyl)amino-3′-phenyl)prop-1′-yl]-2-oxoazetidine], in test [1] (Table 3), the IC50 worked out at 4.03 ± 1.35 µM.

As for `CC(C)CNC(=O)[C@]1(Cc2ccccc2)[C@H](C)C(=O)N1C[C@H](Cc1ccccc1)NCc1cccc(Br)c1` [Compound 44, 4S-Benzyl-4-[N-(iso-butyl)carbamoyl]-3S-methyl-1-[(2′S-(3′′-bromobenzyl)amino-3′-phenyl)prop-1′-yl]-2-oxoazetidine], half-maximal inhibition in test [1] (Table 3) (IC50) was put at 3.27 ± 1.31 µM.

In turn, `CC(C)CNC(=O)[C@]1(Cc2ccccc2)[C@H](C)C(=O)N1C[C@H](Cc1ccccc1)NCc1ccc2ccccc2c1` [Compound 45, 4S-Benzyl-4-[N-(iso-butyl)-carbamoyl]-3S-methyl-1-[(2′S-(2′′-naphtylmethyl)amino-3′-phenyl)prop-1′-yl]-2-oxoazetidine] had an IC50 in test [1] (Table 3) of 3.56 ± 1.4 µM.
